Columns and labels:
[1] = test system: cervical carcinoma (HeLa) cell line; assay: MTT cell viability (cytotoxicity) assay in HeLa cells; assay type: cell-based, human
Source text: The cytotoxicity of the arene-Ru and arene-Os complexes was investigated against HeLa and Hek293 cells. The former cell is a cervical cancer line, while the latter is a non-tumor kidney cell line used to examine tumor selectivity. […] Due to their relative inertness and sufficient stability under physiological conditions, osmium complexes are considered exciting alternatives to ruthenium-based anti-cancer agents.
Phosphate-buffered saline tablets (PBS), 3-(4,5-dimethylthiazol-2-yl)-2.5-diphenyltetrazolium bromide (MTT), and DMSO were obtained from Merck (Darmstadt, Germany). The human embryonic kidney (HEK293) and cervical carcinoma (HeLa) cell lines were sourced from the American Type Culture Collection (ATCC) (Manassas, VA, USA). […]
(§1) The cytotoxicity of the compounds was examined in the HeLa and HEK293 cells using the MTT assay. […] Absorbance measurements were then taken at 570 nm using a Mindray MR-96A microplate reader (Vacutec, Hamburg, Germany).

[2] = test system: human embryonic kidney (HEK293) cell line; assay: MTT cell viability (cytotoxicity) assay in HEK293 cells; assay type: cell-based; conditions: 48 h incubation, non-tumor HEK293 cells, concentration needed to cause 50% net cell mortality
Source text: The cytotoxicity of the arene-Ru and arene-Os complexes was investigated against HeLa and Hek293 cells. The former cell is a cervical cancer line, while the latter is a non-tumor kidney cell line used to examine tumor selectivity. […] These findings imply that the higher stability of the chelating (SS) and the pincer (SNS) ligand architectures in the complexes improve the biological (anti-proliferative) activity by rendering ligand dissociation less likely to occur under physiological conditions. The pincer (SNS) osmium complexes were more cytotoxic than their ruthenium analogues. […] These allow for more efficient interactions with biological target molecules. Osmium typically forms coordinative bonds with more inert bonds than in the analogous lighter homolog, ruthenium. Due to their relative inertness and sufficient stability under physiological conditions, osmium complexes are considered exciting alternatives to ruthenium-based anti-cancer agents. However, there was no apparent general pattern in the reactivity of the two metal centers and the isostructural ligand. […]
as §1

Row | Structure (SMILES) | melting point [°C] | further results
1 | CCn1ccn(CCn2ccn(CC)c2=S)c1=S | 131 to 133 | –
2 | CCCn1ccn(CCn2ccn(CCC)c2=S)c1=S | 91 to 92 | –
3 | Cn1ccn(Cn2ccn(C)c2=S)c1=S | 194 to 197 | –
4 | CCn1ccn(Cn2ccn(CC)c2=S)c1=S | 175 to 177 | –
5 | O=c1[nH]cc(F)c(=O)[nH]1 [5-Fluorouracil, reference compound] | – | Selectivity between tumor cells (HeLa) and normal cells (Hek293) ([1]; HeLa vs Hek293, MTT assay): selective toward the tumor cells; IC50 ([1]; Homo sapiens, MTT, 48 h incubation, HeLa cervical cancer cells, concentration needed to cause 50% net cell mortality): 87 ± 15 µM; IC50 [2]: 180 ± 20 µM

Continued, in another order:

Row | melting point [°C] | Structure (SMILES) | further results
6 | 195 to 197 | Cn1ccn(CCn2ccn(C)c2=S)c1=S | –
7 | 190 to 193 | Cn1ccn(Cc2cccc(Cn3ccn(C)c3=S)n2)c1=S | –
8 | 270 to 273 | Cn1ccn(-c2cccc(-n3ccn(C)c3=S)n2)c1=S | –
9 | 189 to 190 | CC(C)n1ccn(-c2cccc(-n3ccn(C(C)C)c3=S)n2)c1=S | –

Reference: article PMC10935334, “Chemotherapeutic Activities of New η^6-p-Cymene Ruthenium(II) and Osmium(II) Complexes with Chelating SS and Tridentate SNS Ligands” (Molecules, 2024)
